Each structure is given as a SMILES string. Counter-ions that a name gives are not always drawn.

For one series, the target named is T1, human GlyT-1b transporter (Homo sapiens, UniProt P48067).
T1 construct: expressed in transfected cells; host or cells: CHO cells, stably transfected (pcDNA3, Geneticin selection)
T1 sequence (P48067 1-652 isoform P48067-3): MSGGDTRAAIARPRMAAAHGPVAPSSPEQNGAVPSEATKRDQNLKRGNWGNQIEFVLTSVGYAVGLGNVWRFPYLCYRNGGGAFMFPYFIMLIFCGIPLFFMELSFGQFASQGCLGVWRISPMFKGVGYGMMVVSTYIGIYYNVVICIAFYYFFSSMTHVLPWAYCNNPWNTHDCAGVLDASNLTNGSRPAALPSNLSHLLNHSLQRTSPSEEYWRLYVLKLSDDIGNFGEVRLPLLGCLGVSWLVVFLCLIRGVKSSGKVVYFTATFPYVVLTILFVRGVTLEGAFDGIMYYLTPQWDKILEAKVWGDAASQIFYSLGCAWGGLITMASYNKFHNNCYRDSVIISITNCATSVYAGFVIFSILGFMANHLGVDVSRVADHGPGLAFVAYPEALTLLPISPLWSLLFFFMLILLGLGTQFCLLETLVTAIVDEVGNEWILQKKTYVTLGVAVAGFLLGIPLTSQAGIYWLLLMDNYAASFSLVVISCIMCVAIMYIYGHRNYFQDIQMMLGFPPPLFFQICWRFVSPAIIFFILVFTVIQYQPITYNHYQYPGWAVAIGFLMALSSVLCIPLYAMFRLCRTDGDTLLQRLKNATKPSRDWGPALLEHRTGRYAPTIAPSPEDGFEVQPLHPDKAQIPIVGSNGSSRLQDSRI
Put plainly: Glycine uptake in CHO cells heterologously expressing the human GlyT-1b transporter ([3H]glycine uptake). The conditions noted are these: CHO cells stably expressing hGlyT-1b, 10 minutes, 37° C. Format: cell-based. How it is done: Method for Determination of Glycine Uptake in CHO Cells Heterologously Expressing the Human GlyT-1b Transporter
A: Cloning: cDNA was generated by PCR according to the method described by Kim, K.-M. et al. Mol. Pharmacol. 1994, 45, 608-617. Sequence was verified by dideoxy sequencing using the ALF DNA sequencer™ (Pharmacia) and cloned into the expression construct pcDNA3 (Invitrogen).
B: Transfection: Transfection of hGlyT-1b into CHO cells was performed using a standard calcium phosphate technique as described by Sambrook, J. et al. (1989) in Molecular Cloning: A Laboratory Manual, Cold Spring Harbor Laboratory, Cold Spring Harbor, N.Y.
C: Selection: Stably transfected cells were selected for 1 week in growth medium containing 1 mg.cm^−3 Geneticin. Individual clones were picked for further analysis and positives passaged routinely as described below.
D: Culture conditions: Cells stably expressing; the hGlyT-1b gene were cultured at 37° C. in a 5% C02 atmosphere in DMEM—NUT.MIX. F12 with Glutamax-1 (Gibco) containing Geneticin (0.5 mg.cm^−3, Gibco) and supplemented with 10% Fetalclone II (Hyclone). Maintenance culture was carried out in standard 80 cm^2 ventilated flasks (2×10^−6 m filter, Nunc) and cells were subcultured by trypsinisation (Sigma) when confluent.
E: Assay Procedure: Cells for uptake studies were plated in 96 well plates (17,000 cells per well) in the absence of Geneticin and cultured for 48 h before use. To measure glycine transport, cells were washed twice with Hanks' balanced salt solution (HBSS) pre-warmed to 37° C. and excess fluid removed before addition of test compounds dissolved in 0.200 cm^3 HBSS. Plates were incubated at 37° C. for 5 minutes before addition of [^3H]glycine (0.050′cm^3, 150×10^−6 M, 248 Bq.nmol^−1, NEN) and incubation continued for a further 10 minutes. Uptake was terminated by washing cells with ice-cold HBSS before removal of excess fluid and addition of 0.200 cm^3 scintillation cocktail to each well. Plates were sealed with adhesive film, shaken to ensure samples were homogenous before scintillation counting in a plate counter.
F: Analysis: Data were analysed using standard curve fitting procedures to produce a plC50 value for active compounds (where plC50 is the negative logarithm of the concentration of test compound causing 50% inhibition of uptake).
Regarding `Cl.O=C(O)CN1CCC2(C=C(c3ccc4c(c3)OCO4)c3ccccc3O2)CC1` [Example 14, 4-(1,3-Benzodioxolo)-1′-carboxymethylspiro[2H-1-benzopyran-2,4′-piperidine]hydrochloride], the “Inhibition of glycine transport by hGlyT-1, pIC50” value was found to be 6.1. Same read-out and setting: as for `Cl.O=C(O)CN1CCC2(C=C(c3ccc4c(c3)OC(F)(F)O4)c3ccccc3O2)CC1` [Example 33, 1′-Carboxymethyl-4-(2,2-difluoro-1,3-benzodioxolo)spiro[2H-1-benzopyran-2,4′-piperidine]hydrochloride], the figure is 6.2. Same read-out and setting: the value for `Cc1ccc(C2=CC3(CCN(CC(=O)O)CC3)Oc3ccccc32)cc1.Cl` [Example 4, 1′-Carboxymethyl-4-(4-methylphenyl)spiro[2H-1-benzopyran-2,4′-piperidine]hydrochloride] was 6.3.

The same series, now with this note: CHO cells stably expressing hGlyT-1b, 10 minutes, 37° C., read-out: Inhibition of glycine transport by hGlyT-1, pIC50 (converted).
For the compound `O=C(O)CN1CCC2(C=C(c3ccc(Cl)c(F)c3)c3ccccc3O2)CC1` [Example 8, 1′-Carboxymethyl-4-(4-chloro-3-fluorophenyl)spiro[2H-1-benzopyran-2,4′-piperidine]hydrochloride], the IC50 is 501 nM. Take `CCCCOc1ccc(C2=CC3(CCN(CC(=O)O)CC3)Oc3ccccc32)cc1F` [Example 49, 1′-Carboxymethyl-4-(3-fluoro-4-n-butoxyphenyl)spiro[2H-1-benzopyran-2,4′-piperidine]hydrochloride]: the IC50 was 794 nM.

Consider `COc1ccc(C2=CC3(CCN(CC(=O)O)CC3)Oc3ccccc32)cc1F` [Example 11, 1′-Carboxymethyl-4-(3-fluoro-4-methoxyphenyl)spiro[2H-1-benzopyran-2,4′-piperidine]hydrochloride], for which the IC50 is 631 nM. Turning to `C#CCOc1c(F)cc(C2=CC3(CCN(CC(=O)O)CC3)Oc3ccccc32)cc1F` [Example 57, 1′-Carboxymethyl-4-(3,5-difluoro-4-propargyloxyphenyl)spiro[2H-1-benzopyran-2,4′-piperidine]hydrochloride], the IC50 is 251 nM. For the compound `C=CCOc1c(F)cc(C2=CC3(CCN(CC(=O)O)CC3)Oc3ccccc32)cc1F` [Example 55, 4-(4-Allyloxy-3,5-difluorophenyl)-1′-carboxymethylspiro[2H-1-benzopyran-2,4′-piperidine]hydrochloride], the IC50 was 251 nM. Same read-out and setting: as for `Cc1ccc(C2=CC3(CCN(CC(=O)O)CC3)Oc3ccccc32)cc1F` [Example 28, 1′-Carboxymethyl-4-(3-fluoro-4-methylphenyl)spiro[2H-1-benzopyran-2,4′-piperidine]hydrochloride], the figure is 316 nM. For `Cc1ccc(C2=CC3(CCN(CC(=O)O)CC3)Oc3cc(Cl)ccc32)cc1F` [Example 35, 1′-Carboxymethyl-7-chloro-4-(3-fluoro-4-methylphenyl)spiro[2H-1-benzopyran-2,4′-piperidine]hydrochloride], the IC50 is 501 nM.

Consider `O=C(O)CN1CCC2(C=C(c3ccc(Cl)cc3)c3ccccc3O2)CC1` [Example 2, 1′-Carboxymethyl-4-(4-chlorophenyl)spiro[2H-1-benzopyran-2,4′-piperidine]hydrochloride], for which the IC50 is 1000 nM. Turning to `CN(C)c1ccc(C2=CC3(CCN(CC(=O)O)CC3)Oc3ccccc32)cc1F` [Example 37, 1′-Carboxymethyl-4-(4-dimethylamino-3-fluorophenyl)spiro[2H-1-benzopyran-2,4′-piperidine]hydrochloride], the IC50 is 398 nM. On the same count and under the same terms, the value for `COc1c(F)cc(C2=CC3(CCN(CC(=O)O)CC3)Oc3ccccc32)cc1F` [Example 36, 1′-Carboxymethyl-4-(3,5-difluoro-4-methoxyphenyl)spiro[2H-1-benzopyran-2,4′-piperidine]hydrochloride] was 398 nM. For the compound `O=C(O)CN1CCC2(C=C(c3ccc(Br)c(F)c3)c3ccccc3O2)CC1` [Example 39, 4-(4-Bromo-3-fluorophenyl)-1′-carboxymethylspiro[2H-1-benzopyran-2,4′-piperidine]hydrochloride], the IC50 is 794 nM. Same read-out and setting: as for `CN(C)c1c(F)cc(C2=CC3(CCN(CC(=O)O)CC3)Oc3ccccc32)cc1F` [Example 38, 1′-Carboxymethyl-4-(3,5-difluoro-4-dimethylaminophenyl)spiro[2H-1-benzopyran-2,4′-piperidine]hydrochloride], the figure is 251 nM; as for `O=C(O)CN1CCC2(C=C(c3ccc4ccccc4c3)c3ccccc3O2)CC1` [Example 10, 1′-Carboxymethyl-4-(2-naphthyl)spiro[2H-1-benzopyran-2,4′-piperidine]hydrochloride], 631 nM; as for `CN(C)c1ccc(C2=CC3(CCN(CC(=O)O)CC3)Oc3ccccc32)cc1` [Example 24, 1′-Carboxymethyl-4-[4-(N,N-dimethylamino)phenyl]spiro[2H-1-benzopyran-2,4′-piperidine]hydrochloride], 631 nM. Still for that read-out and setting: the value for `O=C(O)CN1CCC2(C=C(c3cc(F)c(OCC(F)(F)F)c(F)c3)c3ccccc3O2)CC1` [Example 59, 1′-Carboxymethyl-4-(3,5-difluoro-4-trifluoroethoxyphenyl)spiro[2H-1-benzopyran-2,4′-piperidine]hydrochloride] was 251 nM. On the same count and under the same terms, as for `CCCOc1ccc(C2=CC3(CCN(CC(=O)O)CC3)Oc3ccccc32)cc1F` [Example 48, 1′-Carboxymethyl-4-(3-fluoro-4-n-propoxyphenyl)spiro[2H-1-benzopyran-2,4′-piperidine]hydrochloride], the figure is 501 nM; as for `CC(C)(C)c1ccc(C2=CC3(CCN(CC(=O)O)CC3)Oc3ccccc32)cc1` [Example 12, 1′-Carboxymethyl-4-(4-tert-butylphenyl)spiro[2H-1-benzopyran-2,4′-piperidine]hydrochloride], 398 nM.

Tested on in the next series: not given
Assay: not given
Conditions: not given
Turning to `O=C([O-])CN1CCC2(C=C(c3ccccc3)c3ccccc3O2)CC1.[Li+]`, the melting point (usually the temperature of the solid-liquid transition) lay within 280 to 281 °C.

`O=C(O)CN1CCC2(C=C(c3ccc4ccccc4c3)c3ccccc3O2)CC1` (as salt: hydrochloride) [Example 10, 1′-Carboxymethyl-4-(2-naphthyl)spiro[2H-1-benzopyran-2,4′-piperidine]hydrochloride] yielded a melting point of 253 to 264 °C. Still for that read-out and setting: the value for `CCOC(=O)CN1CCC2(C=C(c3ccc(CC)cc3)c3ccccc3O2)CC1` [Example 65, Ethyl 4-(4-ethylphenyl)spiro[2H-1-benzopyran-2,4′-piperidine]-1′-acetate] was 119 to 121 °C; that for `O=C([O-])CN1CCC2(C=C(c3ccccc3)c3cc(F)ccc3O2)CC1.[Li+]` was 293 to 298 °C (dec.); that for `O=C([O-])CN1CCC2(C=C(c3ccc(F)cc3)c3ccccc3O2)CC1.[Li+]` was 285 to 291 °C (dec.).

`CN(C)c1ccc(C2=CC3(CCN(CC(=O)O)CC3)Oc3ccccc32)cc1` (as salt: hydrochloride) [Example 24, 1′-Carboxymethyl-4-[4-(N,N-dimethylamino)phenyl]spiro[2H-1-benzopyran-2,4′-piperidine]hydrochloride]: the melting point fell in the range of 238 to 250 °C.

The compound `O=C(O)CN1CCC2(C=C(c3cc(F)c(OCC(F)(F)F)c(F)c3)c3ccccc3O2)CC1` (as salt: hydrochloride) [Example 59, 1′-Carboxymethyl-4-(3,5-difluoro-4-trifluoroethoxyphenyl)spiro[2H-1-benzopyran-2,4′-piperidine]hydrochloride] returned a melting point of 244 to 251 °C.

The record behind these values is patent US6645973B1, “Spiro(2h-1-benzopyran-2,4-piperidine)derivatives as glycine transport inhibitors” (Akzo Nobel, priority 1999, dated 2003).
